Values of other authors as cited in patent US20240325431A1, “COMPOSITION FOR PURIFICATION OF BIOFLUIDS” (BEACON MEDCARE (HK) LIMITED, priority 2018, published 2024).

System: plasma protein

SMILES: C[C@H]1O[C@@H](O[C@H]2[C@@H](O)C[C@H](O[C@H]3[C@@H](O)C[C@H](O[C@H]4CC[C@@]5(C)[C@H](CC[C@@H]6[C@@H]5CC[C@]5(C)[C@@H](C7=CC(=O)OC7)CC[C@]65O)C4)O[C@@H]3C)O[C@@H]2C)C[C@H](O)[C@@H]1O [digitoxin]
- binding rate to plasma protein: 91%

SMILES: CN1C(C(=O)Nc2ccccn2)=C(O)c2sccc2S1(=O)=O [tenoxicam]
- binding rate to plasma protein: 99%
